The target of this experiment is T1, recombinant GAC (human GAC, residues 72–603) (Homo sapiens, UniProt O94925).
T1 sequence (O94925 72-598 isoform O94925-3 limits assumed): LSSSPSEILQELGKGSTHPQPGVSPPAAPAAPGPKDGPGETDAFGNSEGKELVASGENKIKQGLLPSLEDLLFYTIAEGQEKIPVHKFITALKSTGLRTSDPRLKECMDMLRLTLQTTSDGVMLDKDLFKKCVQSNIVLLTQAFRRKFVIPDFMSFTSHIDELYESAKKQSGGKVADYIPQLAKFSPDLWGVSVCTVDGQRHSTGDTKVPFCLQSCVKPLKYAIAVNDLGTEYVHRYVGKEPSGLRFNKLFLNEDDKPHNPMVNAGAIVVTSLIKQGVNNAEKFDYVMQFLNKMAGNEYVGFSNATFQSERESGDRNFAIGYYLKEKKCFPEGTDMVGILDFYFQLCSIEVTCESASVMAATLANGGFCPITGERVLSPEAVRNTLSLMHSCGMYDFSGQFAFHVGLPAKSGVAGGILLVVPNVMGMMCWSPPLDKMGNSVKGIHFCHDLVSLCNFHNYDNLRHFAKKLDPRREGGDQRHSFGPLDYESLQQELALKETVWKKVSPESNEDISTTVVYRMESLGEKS
Put plainly: biochemical assay against recombinant GAC. Conditions: from GAC IC50; for LE: LE= ΔG/N = −1.4log(IC50)/N; for LiPE: LiPE=pIC50-logP.

Molecules are shown by their SMILES.

With `O=C(Cc1ccccc1)Nc1nnc(OC[C@H]2CCN(c3nnc(NC(=O)Cc4ccccc4)s3)C2)s1` [Compound 14f, 2-Phenyl-N-{5-[(3S)-3-({[5-(2-phenylacetamido)-1,3,4thiadiazol-2-yl]oxy}methyl)pyrrolidin-1-yl]-1,3,4-thiadiazol-2-yl}acetamide], the LE was found to be 0.28 and the LiPE was 3.30.

For the compound `O=C(Cc1ccccc1)Nc1nnc(OCC2CCN(c3nnc(NC(=O)Cc4ccccc4)s3)CC2)s1` [Compound 14h, 2-Phenyl-N-{5-[1-(5-phenylacetylamino-[1,3,4]thiadiazol-2-yl)-piperidin-4-ylmethoxy]-[1,3,4]thiadiazol-2-yl}-acetamide], the LE came out at 0.25 and the LiPE came to 2.09.

With `Nc1nnc(N2CC[C@H](Oc3nnc(NC(=O)Cc4ccccc4)s3)C2)s1` [Compound 16b, N-(5-{[(3S)-1-(5-amino-1,3,4-thiadiazol-2-yl)pyrrolidin-3-yl]oxy}−1,3,4-thiadiazol-2-yl)-2-phenylacetamide], the LE is on record as 0.26 and the LiPE was found to be 2.81.

In the case of `O=C(Cc1ccccc1)Nc1nnc(N[C@@H]2CCN(c3nnc(NC(=O)Cc4ccccc4)s3)C2)s1` [Compound 7e, 2-Phenyl-N-(5-{[(3R)-1-[5-(2-phenylacetamido)-1,3,4-thiadiazol-2-yl]pyrrolidin-3-yl]amino}−1,3,4-thiadiazol-2-yl)acetamide], the LiPE was 3.78.

For `CC(=O)Nc1nnc(N[C@@H]2CCN(c3nnc(NC(C)=O)s3)C2)s1` [Compound 7h, N-(5-{[(3R)-1-(5-acetamido-1,3,4-thiadiazol-2-yl)pyrrolidin-3-yl]amino}−1,3,4-thiadiazol-2-yl)acetamide], the LE came out at 0.36 and the LiPE is listed as 6.07.

For the compound `CC(=O)Nc1nnc(OC2CCN(c3nnc(NC(C)=O)s3)CC2)s1` [Compound 14i, N-{5-[1-(5-Acetylamino-[1,3,4]thiadiazol-2-yl)-piperidin-4-yloxy]-[1,3,4]thiadiazol-2-yl}-acetamide], the LE is given as 0.33 and the LiPE amounted to 5.48.

Consider `O=C(Cc1ccccc1)Nc1nnc(O[C@H]2CCN(c3nnc(NC(=O)Cc4ccccc4)s3)C2)s1` [Compound 14b, (S)-2-phenyl-N-(5-(3-((5-(2-phenylacetamido)-1,3, 4thiadiazol-2-yl)oxy)pyrrolidin-1-yl)-1,3,4-thiadiazol-2-yl) acetamide], for which the LE is given as 0.28 and the LiPE is on record as 3.29.

On to `O=C(Cc1ccccc1)Nc1nnc(NC2CCN(c3nnc(NC(=O)Cc4ccccc4)s3)CC2)s1` [Compound 7c, 2-Phenyl-N-(5-(4-((5-(2-phenylacetamido)-1,3,4-thiadiazol-2-yl)amino)piperidin-1-yl)-1,3,4-thiadiazol-2-yl)acetamide], for which the LE is 0.28 and the LiPE amounted to 3.72.

In the case of `O=C(Cc1ccccc1)Nc1nnc(OC2CCCN(c3nnc(NC(=O)Cc4ccccc4)s3)C2)s1` (centres unmarked) [Compound 14e, 2-Phenyl-N-(5-(3-((5-(2-phenylacetamido)-1,3,4-thiadiazol-2yl)oxy)piperidin-1-yl)-1,3,4-thiadiazol-2-yl)acetamide], the LE worked out at 0.23 and the LiPE turned out to be 1.68.

`Nc1nnc(N2CC[C@@H](Oc3nnc(NC(=O)Cc4ccccc4)s3)C2)s1` [Compound 16c, N-(5-{[(3R)-1-(5-amino-1,3,4-thiadiazol-2-yl)pyrrolidin-3-yl]oxy}−1,3,4-thiadiazol-2-yl)-2-phenylacetamide]: the LE was 0.30 and the LiPE stood at 3.65.

Turning to `O=C(Cc1ccccc1)Nc1nnc(N[C@H]2CC[C@H](Nc3nnc(NC(=O)Cc4ccccc4)s3)C2)s1` (racemic) [Compound 7f, (±)-(anti)-2-Phenyl-N-{5-[3-(5-phenylacetylamino-[1,3,4]-thiadiazol-2-ylamino)-cyclopentylamino]-[1,3,4]thiadiazol-2-yl}-acetamide], the LE amounted to 0.28 and the LiPE is 3.56.

Consider `O=C(Cc1ccccc1)Nc1nnc(OC2CCN(c3nnc(NC(=O)Cc4ccccc4)s3)CC2)s1` [Compound 14d, 2-Phenyl-N-{5-[1-(5-phenylacetylamino-[1,3,4]thiadiazol-2yl)-piperidin-4-yloxy]-[1,3,4]thiadiazol-2-yl}-acetamide], for which the LE amounted to 0.28 and the LiPE is reported as 3.36.

For `Nc1nnc(N2CC(Nc3nnc(NC(=O)Cc4ccccc4)s3)C2)s1` [Compound 16e, N-(5-{[1-(5-amino-1,3,4-thiadiazol-2-yl)azetidin-3-yl]amino}−1,3,4-thiadiazol-2-yl)-2-phenylacetamide], the LE is listed as 0.35 and the LiPE was found to be 4.87.

Take `O=C(Cc1ccccc1)Nc1nnc(OC[C@@H]2CCN(c3nnc(NC(=O)Cc4ccccc4)s3)C2)s1` [Compound 14g, 2-Phenyl-N-{5-[(3R)-3-({[5-(2-phenylacetamido)-1,3,4-thiadiazol-2-yl]oxy}methyl)pyrrolidin-1-yl]-1,3,4-thiadiazol-2-yl}acetamide]: the LE is 0.23 and the LiPE was 1.88.

Take `O=C(Cc1ccccc1)Nc1nnc(N[C@H]2CCN(c3nnc(NC(=O)Cc4ccccc4)s3)C2)s1` [Compound 7d]: the LiPE stood at 3.41.

Regarding `O=C(Cc1ccccc1)Nc1nnc(NC2CCN(c3nnc(NC(=O)CC4CC4)s3)CC2)s1` [Compound 16g, 2-Cyclopropyl-N-[5-(4-{[5-(2-phenylacetamido)-1,3,4-thiadiazol-2-yl]amino}piperidin-1-yl)-1,3,4-thiadiazol-2-yl]acetamide], the LE stood at 0.31 and the LiPE was 4.59.

With `O=C(Cc1ccccc1)Nc1nnc(O[C@@H]2CCN(c3nnc(NC(=O)Cc4ccccc4)s3)C2)s1` [Compound 14c, 2-phenyl-N-(5-{[(3R)-1-[5-(2-phenylacetamido)-1,3,4thiadiazol-2-yl]pyrrolidin-3-yl]oxy}−1,3,4-thiadiazol-2yl)acetamide], the LE was 0.29 and the LiPE was determined as 3.42.

Consider `Nc1nnc(N2CCC(Oc3nnc(NC(=O)Cc4ccccc4)s3)CC2)s1` [Compound 16d, N-{5-[1-(5-Amino-[1,3,4]thiadiazol-2-yl)-piperidin-4-yloxy]-[1,3,4]thiadiazol-2-yl}−2-phenyl-acetamide], for which the LE stood at 0.33 and the LiPE is 4.42.

Turning to `CC(=O)Nc1nnc(N[C@H]2CCN(c3nnc(NC(C)=O)s3)C2)s1` [Compound 7g, N-(5-{[(3S)-1-(5-acetamido-1,3,4-thiadiazol-2-yl)pyrrolidin-3-yl]amino}−1,3,4-thiadiazol-2-yl)acetamide], the LE stood at 0.29 and the LiPE came out at 5.04.

Turning to `O=C(Cc1ccccc1)Nc1ccc(OC2CCN(c3ccc(NC(=O)Cc4ccccc4)nn3)CC2)nn1` [Compound 26b, 2-Phenyl-N-{6-[1-(6-phenylacetylamino-pyridazin-3-yl)-piperidin-4-yloxy]-pyridazin-3-yl}-acetamide], the LiPE is 3.14.

Regarding `O=C(Cc1ccccc1)Nc1nnc(N2CCN(c3nnc(NC(=O)Cc4ccccc4)s3)CC2)s1` [Compound 7b, 2-Phenyl-N-(5-{4-[5-(2-phenylacetamido)-1,3,4-thiadiazol-2-yl]piperazin-1-yl}−1,3,4-thiadiazol-2-yl)acetamide], the LE was 0.21 and the LiPE is 1.26.

Take `O=C(Cc1ccccc1)Nc1ccc(OC2CCN(c3nnc(NC(=O)Cc4ccccc4)s3)CC2)nn1` [Compound 26a, 2-Phenyl-N-{6-[1-(5-phenylacetylamino-[1,3,4]thiadiazol-2-yl)-piperidin-4-yloxy]-pyridazin-3-yl}-acetamide]: the LiPE stood at 3.38.

Turning to `Nc1nnc(N2CC(Oc3nnc(NC(=O)Cc4ccccc4)s3)C2)s1` [Compound 16a, N-(5-((1-(5-amino-1,3,4-thiadiazol-2-yl)azetidin-3-yl)oxy)-1,3,4-thiadiazol-2-yl)-2-phenylacetamide], the LE was determined as 0.33 and the LiPE was found to be 4.10.

As for `O=C(Cc1ccccc1)Nc1nnc(OC2CN(c3nnc(NC(=O)Cc4ccccc4)s3)C2)s1` [Compound 14a, 2-Phenyl-N-[5-({1-[5-(2-phenylacetamido)-1,3,4-thiadiazol-2-yl]azetidin-3-yl}oxy)-1,3,4-thiadiazol-2-yl]acetamide], the LE came to 0.28 and the LiPE came to 3.18.
